Data reported in patent US12595239B2, “Substituted isoxazoline derivatives” (BASF SE, priority 2021, dated 2026).

Assays:
Format in all cases: in vivo
Anthonomus grandis = assay: B.1 Boll weevil (Anthonomus grandis), 96-well microtiter plate diet test; settings: 120 h, egg and larval mortality, 5 days, read-out: mortality in comparison with untreated controls
Protocol: For evaluating control of boll weevil, the test unit consisted of 96-well-microtiter plates containing an insect diet and 5-10 A. grandis eggs.
The compounds were formulated using a solution containing 75% v/v water and 25% v/v DMSO. Different concentrations of formulated compounds were sprayed onto the insect diet at 5 μl, using a custom-built micro atomizer, at two replications.
After application, microtiter plates were incubated at about 25±1° C. and about 75±5% relative humidity for 5 days. Egg and larval mortality were then visually assessed.

Heliothis virescens = assay: B.4 Tobacco Budworm, microtiter plate diet test; settings: 120 h, egg and larval mortality, 5 days, read-out: mortality in comparison with untreated controls
Protocol: For evaluating control of Tobacco Budworm, the test unit consisted of 96-well-microtiter plates containing an insect diet and 15-25 H. virescens eggs. The compounds were formulated using a solution containing 75% v/v water and 25% v/v DMSO. Different concentrations of formulated compounds were sprayed onto the insect diet at 10 μl, using a custom-built micro atomizer, at two replications. After application, microtiter plates were incubated at about 28±1° C. and about 80±5% relative humidity for 5 days. Egg and larval mortality was then visually assessed.

Plutella xylostella = assay: B.6 Diamond Back Moth, cabbage leaf disc dip test; settings: foliar, 3rd instar larvae, 72 hours after treatment, read-out: mortality in comparison with untreated controls
Protocol: The active compound was dissolved at the desired concentration in a mixture of 1:1 (vol:vol) distilled water:acetone. Surfactant (Kinetic) was added at a rate of 0.01% (vol/vol). The test solution was prepared at the day of use. Cabbage leaf discs (60 mm in diameter) were dipped in test solution and air-dried. Treated leaves were placed in petri dishes lined with moistened filter paper and inoculated with ten 3rd instar larvae. Mortality was recorded 72 hours after treatment. Feeding damages were also recorded using a scale of 0-100%.

Dichromothrips corbetti = assay: B.7 Orchid Thrips, floral-immersion test; settings: adult thrips, 72 hours after treatment, read-out: mortality in comparison with untreated controls
Protocol: Dichromothrips corbetti adults used for bioassay were obtained from a colony maintained continuously under laboratory conditions. For testing purposes, the test compound was diluted in a 1:1 mixture of acetone:water (vol:vol), plus Kinetic at a rate of 0.01% v/v.
Thrips potency of each compound was evaluated by using a floral-immersion technique. Each orchid petal was dipped into treatment solution and allowed to dry in Petri dishes. Treated petals were placed into individual re-sealable plastic along with about 20 adult thrips. All test arenas were held under dark condition and a temperature of about 28° C. for duration of the assay. The percent mortality was recorded 72 hours after treatment.

Nephotettix virescens = assay: B.9 Rice Green Leafhopper, rice seedling spray test; settings: adults, after 72 hours, read-out: mortality in comparison with untreated controls
Protocol: Four to five-week old rice seedlings with cut upper leaf portion were cleaned and washed 24 hours before spraying. The active compounds were formulated in 1:1 acetone:water (vol:vol), and 0.01% vol/vol surfactant (Kinetic) was added. Potted rice seedlings were sprayed with 5-6 ml test solution, air dried, covered with Mylar cages and inoculated with 10 adults. Treated rice plants were kept at about 28-29° C. and relative humidity of about 50-60%. Percent mortality was recorded after 72 hours.

Tetranychus kanzawai = assay: B.10 Red Spider Mite, cowpea bean spray test; settings: 72 hours after treatment, read-out: mortality in comparison with untreated controls
Protocol: The active compound was dissolved at the desired concentration in a mixture of 1:1 (vol:vol) distilled water:acetone. Add surfactant (Kinetic) was added at a rate of 0.01% (vol/vol). The test solution was prepared at the day of use. Potted cowpea beans of 4-5 days of age were cleaned with tap water and sprayed with I-2 ml of the test solution using air driven DeVilbiss® hand atomizer at 20-30 psi (≈1,38 to 2,07 bar). The treated plants were allowed to air dry and afterwards inoculated with 30 or more mites by clipping a cassava leaf section from rearing population. Treated plants were placed inside a holding room at about 25-26° C. and about 65-70% relative humidity. Percent mortality was assessed 72 hours after treatment.

Spodoptera eridania = assay: B.11 Southern Armyworm 2nd instar larvae, lima bean foliar spray test; settings: 96 h, 4 days after treatment, read-out: mortality in comparison with untreated controls
Protocol: The active compounds were formulated by a Tecan liquid handler in 100% cyclohexanone as a 10′000 ppm solution supplied in tubes. The 10′000 ppm solution was serially diluted in 100% cyclohexanone to make interim solutions. These served as stock solutions for which final dilutions were made by the Tecan in 50% acetone:50% water (v/v) into 10 or 20 ml glass vials. A nonionic surfactant (Kinetic®) was included in the solution at a volume of 0.01% (v/v). The vials were then inserted into an automated electrostatic sprayer equipped with an atomizing nozzle for application to plants/insects. Lima bean plants (variety Sieva) were grown 2 plants to a pot and selected for treatment at the 1st true leaf stage. Test solutions were sprayed onto the foliage by an automated electrostatic plant sprayer equipped with an atomizing spray nozzle. The plants were dried in the sprayer fume hood and then removed from the sprayer. Each pot was placed into perforated plastic bags with a zip closure. Ten to 11 armyworm larvae were placed into the bag and the bags zipped closed. Test plants were maintained in a growth room at about 25° C. and about 20-40% relative humidity for 4 days, avoiding direct exposure to fluorescent light (14:10 light:dark photo-period) to prevent trapping of heat inside the bags. Mortality and reduced feeding were assessed 4 days after treatment, compared to untreated control plants.

Bemisia argentifolii = assay: B.12 Silverleaf Whitefly (adults), cotton plant spray test; settings: 72 h, 3 days after treatment, read-out: mortality in comparison with untreated controls
Protocol: The active compounds were formulated by a Tecan liquid handler in 100% cyclohexanone as a 10,000-ppm solution supplied in tubes. The 10,000-ppm solution was serially diluted in 100% cyclohexanone to make interim solutions. These served as stock solutions for which final dilutions were made by the Tecan in 50% acetone:50% water (v/v) into 5 or 10 ml glass vials. A nonionic surfactant (Kinetic®) was included in the solution at a volume of 0.01% (v/v). The vials were then inserted into an automated electrostatic sprayer equipped with an atomizing nozzle for application to plants/insects. Cotton plants at the cotyledon stage (one plant per pot) were sprayed by an automated electrostatic plant sprayer equipped with an atomizing spray nozzle. The plants were dried in the sprayer fume hood and then removed from the sprayer. Each pot was placed into a plastic cup and about 10 to 12 whitefly adults (approximately 3-5 days old) were introduced. The insects were collected using an aspirator and a nontoxic Tygon® tubing connected to a barrier pipette tip. The tip, containing the collected insects, was then gently inserted into the soil containing the treated plant, allowing insects to crawl out of the tip to reach the foliage for feeding. Cups were covered with a reusable screened lid. Test plants were maintained in a growth room at about 25° C. and about 20-40% relative humidity for 3 days, avoiding direct exposure to fluorescent light (14:10 light:dark photoperiod) to prevent trapping of heat inside the cup. Mortality was assessed 3 days after treatment, compared to untreated control plants.

O=C(Nc1ncc(F)cc1F)c1cc(OC2=NOC(c3cc(Cl)c(F)c(Cl)c3)(C(F)(F)F)C2)ccc1Cl (centres unmarked) [II-8, 2-chloro-5-[[5-(3,5-dichloro-4-fluoro-phenyl)-5-(trifluoromethyl)-4H-isoxazol-3-yl]oxy]-N-(3,5-difluoro-2-pyridyl)benzamide]
≥ 75%: mortality at 2500 ppm (Anthonomus grandis) | mortality at 2500 ppm (Heliothis virescens) | mortality at 300 ppm (Plutella xylostella) | mortality at 300 ppm (Dichromothrips corbetti) | mortality at 300 ppm (Nephotettix virescens) | mortality at 300 ppm (Tetranychus kanzawai) | mortality at 300 ppm (Spodoptera eridania) | mortality at 300 ppm (Bemisia argentifolii)
